Reference: patent publication US20220192985A1, “METHOD OF PRODUCTION OF A COMPOSITE OF YEAST-DERIVED BETA GLUCAN PARTICLE WITH INCORPORATED POORLY-WATER-SOLUBLE LOW-MOLECULAR-WEIGHT COMPOUND, PHARMACEUTICAL PREPARATION AND USE THEREOF” (VYSOKA SKOLA CHEMICKO-TECHNOLOGICKA V PRAZE, priority 2019, published 2022)

Legend:
Type in all cases: physicochemical
[1] = Powder rheology shear test (FT4), Comparative Example 9; details: pre-sheared at 3 kPa, mass ratio 10%
Procedure: Shear tests were performed on the samples a Powder Rheometer FT4 (pre-sheared at 3 kPa consolidation and initial mass of 0.6-0.7 g). The tests were carried out per duplicate under laboratory conditions (21.2±0.7° C. and 35.1±2.0% relative humidity).

[2] = Moisture (water content), moisture analysis balance; details: first measurement, 100° C. infrared drying
Procedure: (§1) The moisture (water content) of the samples was firstly measure using a moisture analysis balance (simple test, 100° C., 5 mg initial mass, infrared drying). […] The samples were then dried for 24 hours in the oven with very-slowly-moving fan at 30° C. Finally, a shear test (FIG. 15) was performed on the samples a Powder Rheometer FT4 (pre-sheared at 3 kPa consolidation and initial mass of 0.6-0.7 g).

[3] = Powder rheology shear test (FT4), Example 8; details: pre-sheared at 3 kPa; ATO/GP mass ratio 25%
Procedure: as §1

[4] = Dissolution test of (IBU+ASA)/GP, crude IBU and crude ASA in 10 mM HCl (pH 2.0); details: 10 mM HCl pH 2.0, room temperature; compared with encapsulated drug
Procedure: Dissolution tests (FIG. 11) were performed for crude micronized ibuprofen, crude acetylsalicylic acid and for the produced (IBU+ASA)/GP composite particles, in powder form and using 10 mM HCl (pH 2.0) as dissolution medium. For that, 20.0 mg of crude drug (IBU or ASA) or 100.0 mg of (IBU+ASA)/GP composite, were added to 200 mL of continuously stirred dissolution medium (for a maximum concentration of 0.1 mg of drug per ml of medium). The mixtures were continuously stirred at 250 rpm and room temperature in a 250-mL beaker. At pre-defined time-points (ranging from 0 to 60 min), 500 μL of sample were collected, centrifuged and filtered (200-nm pore size filtration membrane), and the concentration was evaluated by high-performance liquid chromatography (HPLC) with UV detection (Agilent), coupled with C18 column (100 mm×4.6 mm, 5 μm) and mobile phase consisting of 0.01 M ammonium phosphate buffer (pH 2.0) and acetonitrile, in gradient according to the Table 2: […]

SMILES	Cohesion ([1]; 21.2±0.7° C., 35.1±2.0% relative humidity) [kPa]	AIF (Angle of Internal Friction) [1] [°]	Category (flowability) [1]	FF (Flow Function) [1]	moisture (water content) [2] [% wt.]	AIF (Angle of Internal Friction) [3] [°]	Cohesion [3] [kPa]	dissolution rate [4]
CC(C)c1c(C(=O)Nc2ccccc2)c(-c2ccccc2)c(-c2ccc(F)cc2)n1CC[C@@H](O)C[C@@H](O)CC(=O)O [Crude ATO, atorvastatin]	0.81 ± 0.21	51.24 ± 0.82	Cohesive	2.43 ± 0.48	2.5	45.3	0.879	–
CC(=O)Oc1ccccc1C(=O)O [crude ASA, acetylsalicylic acid]	–	–	–	–	–	–	–	slower dissolution rates
CC(C)Cc1ccc(C(C)C(=O)O)cc1 (stereo not drawn) [crude IBU, ibuprofen]	–	–	–	–	–	–	–	slower dissolution rates
